Active and inactive are the calls of the source. No cut-off for these calls is given here.

The values that follow come from ChEMBL document CHEMBL3817761, “Chenopodium album metabolites act as dual topoisomerase inhibitors and induce apoptosis in the MCF7 cell line” (Medchemcomm, 2016).

Test [1] has as its system MCF7. The experiment in a line: Cell cycle arrest in human MCF7 cells assessed as accumulation at S phase at 11.33 uM after 48 hrs by propidium iodide staining based flow cytometry (reference value: 20.6 %). It counts as functional. For orientation: A flow cytometer gives signals particle by particle.
Test [2] deals with MCF7. The test is described as follows: Induction of apoptosis in human MCF7 cells assessed as cell detachment at 11.33 uM after 24 hrs by inverted phase contrast microscopy. In kind it is functional, cell-based.
Test [3] relates to MCF7. The test is described as follows: Induction of ROS accumulation in human MCF7 cells at 11.33 uM after 12 hrs by CM-H2-DCFDA probe based flow cytometry (reference value: 5.1 %). In kind it is functional.
The subject of test [4] is MCF7. The test is described as follows: Induction of apoptosis in human MCF7 cells assessed as late apoptotic cells at 11.33 uM after 48 hrs by Annexin-V-FITC/propidium iodide staining based flow cytometry relative to control. It counts as functional.
For test [5], the system named is MCF7. The experiment in a line: Cell cycle arrest in human MCF7 cells assessed as accumulation at S phase at 11.33 uM after 24 hrs by propidium iodide staining based flow cytometry (reference value: 24.5 %). In kind it is functional.
In test [6] the test system is MCF7. The test is described as follows: Induction of apoptosis in human MCF7 cells assessed as caspase 9 cleavage at 11.33 uM after 48 hrs by Western blot analysis. It counts as functional, cell-based.
Test [7] has as its system MCF7. The experiment in a line: Induction of apoptosis in human MCF7 cells assessed as PARP-1 cleavage at 11.33 uM after 48 hrs by Western blot analysis. It counts as functional, cell-based. (In general: In western blotting, separated proteins are transferred to a membrane and probed.)
Test [8] deals with MCF7. The experiment in a line: Cell cycle arrest in human MCF7 cells assessed as accumulation at G0/G1 phase at 11.33 uM after 24 hrs by propidium iodide staining based flow cytometry (reference value: 50.3 %). It counts as functional.
For test [9], the system named is MCF7. The experiment in a line: Induction of apoptosis in human MCF7 cells assessed as viable cells at 11.33 uM after 24 hrs by Annexin-V-FITC/propidium iodide staining based flow cytometry (reference value: 95.9 %). It counts as functional. As to conditions: MCF7, 24 h, read-out: Activity.
Test [10] relates to MCF7. The test is described as follows: Induction of ROS accumulation in human MCF7 cells at 11.33 uM after 24 hrs by CM-H2-DCFDA probe based flow cytometry (reference value: 12.6 %). In kind it is functional.
Test [11] has as its system MCF7. The experiment in a line: Induction of mitochondrial membrane depolarization in human MCF7 cells at 11.33 uM after 24 hrs by JC-1 staining based FACS assay (reference value: 9.9 %). It counts as functional.
Test [12] has as its system MCF7. The test is described as follows: Cell cycle arrest in human MCF7 cells assessed as accumulation at G2/M phase at 11.33 uM after 48 hrs by propidium iodide staining based flow cytometry (reference value: 19.8 %). It counts as functional.
Test [13] has as its system MCF7. The experiment in a line: Induction of mitochondrial membrane depolarization in human MCF7 cells assessed as ratio of red to green fluorescence at 11.33 uM after 48 hrs by JC-1 staining based FACS assay (reference value: 9.1). It counts as functional.
Test [14] has as its system MCF7. The test is described as follows: Induction of apoptosis in human MCF7 cells assessed as necrotic cells at 11.33 uM after 48 hrs by Annexin-V-FITC/propidium iodide staining based flow cytometry (reference value: 0.4 %). It counts as functional.
Test [15] relates to MCF7. The experiment in a line: Induction of apoptosis in human MCF7 cells assessed as viable cells at 11.33 uM after 48 hrs by Annexin-V-FITC/propidium iodide staining based flow cytometry (reference value: 99.2 %). In kind it is functional. Conditions: MCF7, 48 h, read-out: Activity.
For test [16], the system named is MCF7. The experiment in a line: Induction of apoptosis in human MCF7 cells assessed as caspase 7 cleavage at 11.33 uM after 48 hrs by Western blot analysis. It counts as functional, cell-based.
Test [17] relates to MCF7. The experiment in a line: Induction of apoptosis in human MCF7 cells assessed as necrotic cells at 11.33 uM after 24 hrs by Annexin-V-FITC/propidium iodide staining based flow cytometry (reference value: 1.7 %). In kind it is functional.
The test system of test [18] is MCF7. The test is described as follows: Induction of apoptosis in human MCF7 cells assessed as early apoptotic cells at 11.33 uM after 48 hrs by Annexin-V-FITC/propidium iodide staining based flow cytometry (reference value: 0.4 %). In kind it is functional.
For test [19], the system named is MCF7. The experiment in a line: Cell cycle arrest in human MCF7 cells assessed as accumulation at G0/G1 phase at 8.27 uM after 48 hrs by propidium iodide staining based flow cytometry (reference value: 59.7 %). In kind it is functional.
Test [20] deals with MCF7. The test is described as follows: Induction of apoptosis in human MCF7 cells assessed as necrotic cells at 8.27 uM after 24 hrs by Annexin-V-FITC/propidium iodide staining based flow cytometry (reference value: 1.7 %). It counts as functional.
For test [21], the system named is MCF7. The experiment in a line: Cell cycle arrest in human MCF7 cells assessed as accumulation at G2/M phase at 8.27 uM after 48 hrs by propidium iodide staining based flow cytometry (reference value: 19.8 %). It counts as functional.
The subject of test [22] is MCF7. The experiment in a line: Induction of ROS accumulation in human MCF7 cells at 8.27 uM after 12 hrs by CM-H2-DCFDA probe based flow cytometry (reference value: 5.1 %). In kind it is functional.
Test [23] has as its system MCF7. The experiment in a line: Induction of apoptosis in human MCF7 cells assessed as viable cells at 8.27 uM after 48 hrs by Annexin-V-FITC/propidium iodide staining based flow cytometry (reference value: 99.2 %). It counts as functional. As to conditions: MCF7, 48 h, read-out: Activity.
Test [24] relates to MCF7. The test is described as follows: Cell cycle arrest in human MCF7 cells assessed as accumulation at S phase at 8.27 uM after 48 hrs by propidium iodide staining based flow cytometry (reference value: 20.6 %). It counts as functional.
For test [25], the system named is MCF7. The experiment in a line: Cell cycle arrest in human MCF7 cells assessed as accumulation at S phase at 8.27 uM after 24 hrs by propidium iodide staining based flow cytometry (reference value: 24.5 %). It counts as functional.
Test [26] relates to MCF7. The test is described as follows: Induction of apoptosis in human MCF7 cells assessed as rounded cells at 8.27 uM after 24 hrs by inverted phase contrast microscopy. In kind it is functional, cell-based.
The test system of test [27] is MCF7. The experiment in a line: Induction of apoptosis in human MCF7 cells assessed as late apoptotic cells at 8.27 uM after 48 hrs by Annexin-V-FITC/propidium iodide staining based flow cytometry relative to control. It counts as functional.
For test [28], the system named is MCF7. The experiment in a line: Induction of apoptosis in human MCF7 cells assessed as viable cells at 8.27 uM after 24 hrs by Annexin-V-FITC/propidium iodide staining based flow cytometry (reference value: 95.9 %). It counts as functional. As to conditions: MCF7, 24 h, read-out: Activity.
Test [29] has as its system MCF7. The test is described as follows: Induction of apoptosis in human MCF7 cells assessed as PARP-1 cleavage at 8.27 uM after 48 hrs by Western blot analysis. In kind it is functional, cell-based.
For test [30], the system named is MCF7. The test is described as follows: Cell cycle arrest in human MCF7 cells assessed as accumulation at G0/G1 phase at 8.27 uM after 24 hrs by propidium iodide staining based flow cytometry (reference value: 50.3 %). In kind it is functional.
Test [31] deals with MCF7. The test is described as follows: Induction of mitochondrial membrane depolarization in human MCF7 cells assessed as ratio of red to green fluorescence at 8.27 uM after 48 hrs by JC-1 staining based FACS assay (reference value: 9.1). It counts as functional.
In test [32] the test system is MCF7. The experiment in a line: Induction of mitochondrial membrane depolarization in human MCF7 cells at 8.27 uM after 48 hrs by JC-1 staining based FACS assay (reference value: 9.9 %). In kind it is functional.
Test [33] has as its system MCF7. The experiment in a line: Induction of mitochondrial membrane depolarization in human MCF7 cells assessed as ratio of red to green fluorescence at 8.27 uM after 24 hrs by JC-1 staining based FACS assay (reference value: 9.1). In kind it is functional.
Test [34] has as its system MCF7. The test is described as follows: Induction of mitochondrial membrane depolarization in human MCF7 cells at 8.27 uM by JC-1 staining based FACS assay. It counts as functional, cell-based. As to conditions: TDE = time-dependent effect.
Test [35] concerns MCF7. The test is described as follows: Induction of apoptosis in human MCF7 cells assessed as early apoptotic cells at 8.27 uM after 48 hrs by Annexin-V-FITC/propidium iodide staining based flow cytometry (reference value: 0.4 %). In kind it is functional.
The subject of test [36] is MCF7. The test is described as follows: Induction of apoptosis in human MCF7 cells assessed as cell detachment at 8.27 uM after 24 hrs by inverted phase contrast microscopy. It counts as functional, cell-based.

For `CC1(C)CC[C@]2(C(=O)O)CC[C@]3(C)C(=CC[C@@H]4[C@@]5(C)CC[C@H](O[C@@H]6O[C@H](C(=O)O)[C@@H](O)[C@H](O)[C@H]6O)C(C)(C)[C@@H]5CC[C@]43C)[C@@H]2C1`, the Activity in the test on MCF7 [1] is 47.1%; in the test with MCF7 [3] it was 50.4%; with MCF7 [4], 1.3%; with MCF7 [5], 29.7%; with MCF7 [8], 45.9%; with MCF7 [10], 99.9%. For the same compound, the Activity was 14% with MCF7 [11]; 17% with MCF7 [12]; 0.8% with MCF7 [14]; 0.7% in the test on MCF7 [17]; 46% with MCF7 [18]. The result with MCF7 [2], in the test with MCF7 [6], with MCF7 [7] and in the test on MCF7 [16] was Active. In addition, the viability at 11.33 µM was determined as 87.5% in the test with MCF7 [9] and 52% with MCF7 [15]. Besides, the Ratio in the test with MCF7 [13] was found to be 0.821.
Consider `C[C@@H]1CC[C@@]2(OC1)O[C@H]1C[C@H]3[C@@H]4CC[C@H]5C[C@@H](O[C@@H]6O[C@H](CO)[C@H](O[C@@H]7O[C@H](CO)[C@@H](O)[C@H](O[C@@H]8OC[C@@H](O)[C@H](O)[C@H]8O)[C@H]7O[C@@H]7O[C@H](CO)[C@@H](O)[C@H](O)[C@H]7O)[C@H](O)[C@H]6O)CC[C@]5(C)[C@H]4CC[C@]3(C)[C@H]1[C@@H]2C` [DEGALACTOTIGONIN], for which the Activity in the test with MCF7 [19] was found to be 36.3%; with MCF7 [20], 3%; with MCF7 [21], 22.5%; in the test with MCF7 [22], 50.5%; with MCF7 [24] it was 40.1%; in the test on MCF7 [25], 27.5%. In addition, the Activity in the test with MCF7 [27] was 0.6%; in the test with MCF7 [30], 43.8%; in the test on MCF7 [32], 69.6%; with MCF7 [34], “tde”; in the test on MCF7 [35] it was 98.7%. In addition, the viability at 8.27 µM in the test with MCF7 [23] turned out to be 0.7%; in the test with MCF7 [28] it was 91%. The result in the test with MCF7 [26], in the test on MCF7 [29] and in the test on MCF7 [36] was Active. Besides, the Ratio is recorded as 0.437 in the test with MCF7 [31] and 9 in the test with MCF7 [33].
